This passage reports EC50 and Emax results from PMC2099433, “The binding site for neohesperidin dihydrochalcone at the human sweet taste receptor” (BMC Structural Biology, 2007).

Experiment [1] deals with T1, hTAS1R2 + hTAS1R3 Y699F^4.60 (Homo sapiens, UniProt Q7RTX0+Q8TE23, Y699F).
T1 construct: expressed in transfected cells; host or cells: HEK293T cells stably expressing G16Gust44
T1 sequence (Q7RTX0 21-852 Y699F): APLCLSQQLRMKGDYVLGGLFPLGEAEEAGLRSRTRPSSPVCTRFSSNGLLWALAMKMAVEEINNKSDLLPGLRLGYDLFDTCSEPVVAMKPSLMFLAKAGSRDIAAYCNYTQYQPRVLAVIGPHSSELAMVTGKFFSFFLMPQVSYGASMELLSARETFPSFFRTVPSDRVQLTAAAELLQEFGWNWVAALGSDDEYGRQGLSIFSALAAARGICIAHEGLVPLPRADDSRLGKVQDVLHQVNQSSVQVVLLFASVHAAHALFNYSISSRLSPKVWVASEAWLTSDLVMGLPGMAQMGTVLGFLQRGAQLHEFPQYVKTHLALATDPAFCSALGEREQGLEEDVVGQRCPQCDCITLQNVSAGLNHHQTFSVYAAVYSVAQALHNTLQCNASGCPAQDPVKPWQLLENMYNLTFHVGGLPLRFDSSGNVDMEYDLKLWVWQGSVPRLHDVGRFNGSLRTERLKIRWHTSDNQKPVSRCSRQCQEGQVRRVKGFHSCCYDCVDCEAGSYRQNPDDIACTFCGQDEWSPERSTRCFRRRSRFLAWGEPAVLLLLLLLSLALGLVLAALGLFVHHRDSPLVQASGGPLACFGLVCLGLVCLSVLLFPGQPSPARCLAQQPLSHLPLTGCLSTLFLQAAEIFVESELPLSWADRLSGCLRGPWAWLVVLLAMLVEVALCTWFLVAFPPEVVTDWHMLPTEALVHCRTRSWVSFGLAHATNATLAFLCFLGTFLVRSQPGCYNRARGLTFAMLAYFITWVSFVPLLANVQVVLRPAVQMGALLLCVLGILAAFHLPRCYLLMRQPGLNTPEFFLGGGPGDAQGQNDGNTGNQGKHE
T1 sequence (Q8TE23 20-839): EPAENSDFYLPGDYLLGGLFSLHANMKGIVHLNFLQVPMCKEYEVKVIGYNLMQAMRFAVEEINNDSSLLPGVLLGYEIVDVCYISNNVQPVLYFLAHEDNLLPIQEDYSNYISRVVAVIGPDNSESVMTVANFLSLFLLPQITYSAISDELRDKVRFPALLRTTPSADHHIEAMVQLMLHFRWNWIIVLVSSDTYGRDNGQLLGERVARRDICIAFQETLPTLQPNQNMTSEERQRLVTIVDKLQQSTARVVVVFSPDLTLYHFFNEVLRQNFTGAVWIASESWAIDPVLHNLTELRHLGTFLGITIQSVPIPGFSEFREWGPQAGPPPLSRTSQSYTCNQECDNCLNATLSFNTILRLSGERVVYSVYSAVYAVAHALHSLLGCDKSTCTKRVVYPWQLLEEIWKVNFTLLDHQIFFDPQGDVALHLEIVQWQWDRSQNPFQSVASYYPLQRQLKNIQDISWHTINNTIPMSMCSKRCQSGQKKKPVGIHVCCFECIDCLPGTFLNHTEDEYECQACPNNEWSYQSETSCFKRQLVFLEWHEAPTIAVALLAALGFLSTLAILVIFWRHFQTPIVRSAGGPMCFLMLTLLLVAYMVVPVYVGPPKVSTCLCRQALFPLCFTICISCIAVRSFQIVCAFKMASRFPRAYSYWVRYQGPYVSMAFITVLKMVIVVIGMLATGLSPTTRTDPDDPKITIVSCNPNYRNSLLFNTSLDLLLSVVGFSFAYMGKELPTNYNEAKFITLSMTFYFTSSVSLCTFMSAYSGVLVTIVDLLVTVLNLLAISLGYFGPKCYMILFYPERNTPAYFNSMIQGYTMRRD
Briefly: Calcium response (FLIPR), hTAS1R3 mutant coexpressed with hTAS1R2. The settings on record: variant Y699F^4.60; for Emax: read-out: maximal signal (% of wt). The experiment is classed as cell-based. The essentials: (§1)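 HEK293T/G16Gust44, transient transfection of HSV-tagged TAS1R2 + TAS1R3 mutants; Fluo4-AM loading 1 h at 24 h; sweet tastants in C1 solution; FLIPR Ca2+ read; ΔF/F, mock-subtracted; ≥3 independent expts in duplicate.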

Experiment [2] addresses T2, hTAS1R2 + hTAS1R3 F624L^2.61 (Homo sapiens, UniProt Q7RTX0+Q8TE23, F624L).
T2 construct: expressed in transfected cells; host or cells: HEK293T cells stably expressing G16Gust44
T2 sequence (Q8TE23 20-839): T1 sequence (Q8TE23 20-839)
T2 sequence (Q7RTX0 21-852 F624L): T1 sequence (Q7RTX0 21-852 Y699F) with F604L, F679Y
Described as above. The format is cell-based. As to conditions: variant F624L^2.61; for EC50: (>) EC50 not calculable because saturation is not reached; for Emax: read-out: maximal signal (% of wt). The essentials:
as §1

By EC50 is commonly meant the concentration needed to bring the measured effect to its halfway point.

Each structure is given as a SMILES string. Positions count from the first letter of the chain named. Where a SMILES comes first, the peptide text is derived from it.

Turning to `COc1ccc(CCC(=O)c2c(O)cc(O[C@@H]3O[C@H](CO)[C@@H](O)[C@H](O)[C@H]3O[C@@H]3O[C@@H](C)[C@H](O)[C@@H](O)[C@H]3O)cc2O)cc1O` [NHDC, neohesperidin dihydrochalcone], in experiment [1], the EC50 amounted to 600 ± 400 µM and the Emax is 72 ± 17%. For the same compound, in experiment [2], the EC50 was greater than 1 mM and the Emax was 35 ± 70%.

Take `COC(=O)[C@H](Cc1ccccc1)NC(=O)[C@@H](N)CC(=O)O` [aspartame] (HELM PEPTIDE1{D.F.[CO[*:1]]}$$$$V2.0): in experiment [1], the half-maximal effective concentration (EC50) came to 1200 ± 300 µM and the Emax was 56 ± 2%. In addition, in experiment [2], the EC50 is 1.4 ± 0.2 mM and the Emax was determined as 21 ± 4%.
